Measurements: US11642322B2, “Food supplement and composition comprising choline butyrate salt and/or butyrylcholine” (A[…], priority 2016, dated 2023)
Like-named read-outs stand apart in the source and are kept apart here.

Legend:
[1] = 1100 mg per kilogram feed, first day of life till day 39
Text: 396 days old ROSS® 308 meat chickens were used for this test. The test lasted from the first day of life of the chickens till day 39. […] The uncertainty of the measurement value is lower than 0.05.
(§1) The design of the test was for the rest similar to the one described above.

[2] = test system: CD3+ T-cells
Experimental: 20 days old ROSS® 308 meat chickens were used for this test. The test lasted from the first day of life of the chickens till day 14. […] On day 14, the average amount of CD3+ T-cells was determined for both groups.

[3] = test system: villi; conditions: 1100 mg per kilogram feed; for average length of the villi: 5 chickens
Experimental: 20 days old ROSS® 308 meat chickens were used for this test. The test lasted from the first day of life of the chickens till day 39. […] The average length of the villi of 5 chickens was measured for each group after 14 days. […] The average length of the villi of 5 chickens was measured for each group after 39 days. […] The uncertainty of the measurement value is lower than 0.05.
as §1

[4] = test system: coccidiose; assay: Influence on Coccidiose infection (chickens in a shed infected with coccidiose); conditions: 1100 mg per kilogram feed, till day 39
Text: 496 days old ROSS® 308 meat chickens were used for this test and were placed in a shed that was infected with coccidiose. The test lasted from the first day of life of the chickens till day 39. […] The uncertainty of the measurement value is lower than 0.05.

| SMILES | decrease of the FCR value with respect to the control group [1] | change of the surface percentage for CD3+ compared to the control group (in words) ([2]; similar design, added to the feed) | increase of the length of the villi compared to the control group ([3]; after 39 days) | FCR value ([1]; test group) | increase of the surface percentage for CD3+ versus control group ([2]; day 14, 1100 mg per kilogram feed) | surface percentage for CD3+ ([2]; day 14, test group, 1100 mg per kilogram feed) | increase of the length of the villi compared to the control group ([3]; after 14 days) | average length of the villi ([3]; after 14 days) | average length of the villi ([3]; after 39 days) | animals that died, supplemented group versus control [4] | decrease of the FCR value versus control group [4] | FCR value ([4]; test group) |
| --- | --- | --- | --- | --- | --- | --- | --- | --- | --- | --- | --- | --- |
| CCCC(=O)OCC[N+](C)(C)C [butyrylcholine, (N,N,N-trimethyl)-2-ammoniumethylbutanoate] | 5% | increase | 21% |  |  |  |  |  |  |  |  |  |
| CCCC(=O)[O-].C[N+](C)(C)CCO [choline butyrate] | 5% |  | 21% | 1.57 | 27% | 23 surface percentage | 7% | 779 μm | 1231 μm | more animals died | 13% | 2.22 |
